Reference: ChEMBL document CHEMBL1201862, “PubChem BioAssay data set” (2004)
Calls of active or inactive are those of the source.

What was measured:
[1] = target: T1, Zinc finger protein mex-5 (Caenorhabditis elegans, UniProt Q9XUB2); test: MEX-5/TCR-2 RNA interaction inhibitors, dose response, biochemical, C. elegans, fluorescence polarization (AID 1960)
T1 sequence (Q9XUB2 whole entry): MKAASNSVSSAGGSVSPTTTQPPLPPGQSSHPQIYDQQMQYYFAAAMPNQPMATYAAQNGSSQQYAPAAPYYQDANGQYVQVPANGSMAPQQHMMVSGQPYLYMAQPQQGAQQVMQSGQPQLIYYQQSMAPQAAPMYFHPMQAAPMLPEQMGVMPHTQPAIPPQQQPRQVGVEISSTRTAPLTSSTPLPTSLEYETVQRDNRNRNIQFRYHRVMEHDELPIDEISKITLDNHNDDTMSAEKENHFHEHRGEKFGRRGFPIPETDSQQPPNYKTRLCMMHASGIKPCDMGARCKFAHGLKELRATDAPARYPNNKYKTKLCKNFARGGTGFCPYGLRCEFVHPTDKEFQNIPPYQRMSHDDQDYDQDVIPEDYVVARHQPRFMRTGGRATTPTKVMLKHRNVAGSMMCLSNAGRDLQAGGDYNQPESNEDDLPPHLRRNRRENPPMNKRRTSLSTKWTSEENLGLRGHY

[2] = system: A-375; test: MITF: Counter assay: A375 proliferation Measured in Cell-Based System Using Plate Reader - 2084-03_Inhibitor_Dose_DryPowder_Activity. [Related pubchem assays (depositor defined):AID488944]; assay type: functional; details: Homo sapiens
[3] = target: T2, Endoribonuclease toxin MazF (Escherichia coli K-12, UniProt P0AE70); test: fluorescent RNA oligo signal without MazF, dose response, counter-screen for MazEF activator project, biochemical, fluorescence, single-stranded RNase substrate (AID 588502); assay type: functional
T2 sequence (P0AE70 whole entry): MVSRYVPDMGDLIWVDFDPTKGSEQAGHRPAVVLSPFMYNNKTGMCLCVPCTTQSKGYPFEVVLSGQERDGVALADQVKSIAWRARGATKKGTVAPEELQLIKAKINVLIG

[4] = target: X-box-binding protein 1 (Homo sapiens, UniProt P17861); assay type: functional, Cricetulus griseus;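 further: confirmatory dose-response counter-screen serving a CHOP assay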
[5] = growth suppression of PTEN-null colon cells, dose response, cell-based, HCT116 PTEN knockout (AID 1047); assay type: functional;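 further: HCT116 colon tumor cells with PTEN knocked out; cells exposed to compound for 60 hours before readout; potency for loss of cell viability measured by luminescence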
[6] = target: T2, Endoribonuclease toxin MazF; test: MazF toxin RNase activators, dose response, biochemical, fluorescence, single-stranded RNA substrate, uHTS hits (AID 588481); assay type: functional
[7] = target: T3, RNA-binding protein pos-1 (Caenorhabditis elegans, UniProt G5EF15); test: inhibitors of POS-1/mex-3 RNA binding, dose response, biochemical, fluorescence polarization (AID 1964);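 further: purified POS-1 fused to maltose binding protein made in E. coli; potency of compounds blocking POS-1 binding to fluorescent RNA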
T3 sequence (G5EF15 whole entry): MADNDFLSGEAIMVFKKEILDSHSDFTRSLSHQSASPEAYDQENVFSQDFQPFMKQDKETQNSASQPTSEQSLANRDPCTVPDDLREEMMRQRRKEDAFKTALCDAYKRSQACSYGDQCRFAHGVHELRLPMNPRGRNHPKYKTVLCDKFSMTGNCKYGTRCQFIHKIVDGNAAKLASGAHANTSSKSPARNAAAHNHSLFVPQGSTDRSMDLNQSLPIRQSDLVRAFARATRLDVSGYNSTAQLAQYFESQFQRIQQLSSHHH

[8] = growth suppression of beta-catenin-knockout colon cells, dose response, cell-based, HCT116, human colon tumor (AID 1045); assay type: functional;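 further: HCT116 colon tumor cells with beta catenin knocked out; cells exposed to compound for 60 hours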
[9] = mammalian cell cytotoxicity, dose response, cytotoxicity control, plate reader, cherry-pick samples (AID 504397); assay type: functional, cell-based
[10] = target: T4, CAAX prenyl protease 2 (Saccharomyces cerevisiae S288c, UniProt Q03530); assay type: biochemical
T4 sequence (Q03530 whole entry): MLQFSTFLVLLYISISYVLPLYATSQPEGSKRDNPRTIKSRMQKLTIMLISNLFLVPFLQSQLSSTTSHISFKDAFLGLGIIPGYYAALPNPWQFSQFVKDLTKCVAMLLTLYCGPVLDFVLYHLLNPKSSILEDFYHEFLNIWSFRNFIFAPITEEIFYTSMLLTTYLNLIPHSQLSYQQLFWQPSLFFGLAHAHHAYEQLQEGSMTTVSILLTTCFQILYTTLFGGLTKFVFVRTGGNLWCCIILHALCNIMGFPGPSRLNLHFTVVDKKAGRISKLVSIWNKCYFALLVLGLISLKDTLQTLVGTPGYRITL

[11] = target: T5, Protein RecA (Mycobacterium tuberculosis, UniProt P9WHJ3); test: Fluorescence Cell-Free Homogeneous Dose Retest to Identify Inhibitors of RecA-Intein Splicing Activity. [Related pubchem assays (depositor defined):AID2097, AID2223, AID489010, AID492950]; assay type: functional
T5 sequence (P9WHJ3 whole entry): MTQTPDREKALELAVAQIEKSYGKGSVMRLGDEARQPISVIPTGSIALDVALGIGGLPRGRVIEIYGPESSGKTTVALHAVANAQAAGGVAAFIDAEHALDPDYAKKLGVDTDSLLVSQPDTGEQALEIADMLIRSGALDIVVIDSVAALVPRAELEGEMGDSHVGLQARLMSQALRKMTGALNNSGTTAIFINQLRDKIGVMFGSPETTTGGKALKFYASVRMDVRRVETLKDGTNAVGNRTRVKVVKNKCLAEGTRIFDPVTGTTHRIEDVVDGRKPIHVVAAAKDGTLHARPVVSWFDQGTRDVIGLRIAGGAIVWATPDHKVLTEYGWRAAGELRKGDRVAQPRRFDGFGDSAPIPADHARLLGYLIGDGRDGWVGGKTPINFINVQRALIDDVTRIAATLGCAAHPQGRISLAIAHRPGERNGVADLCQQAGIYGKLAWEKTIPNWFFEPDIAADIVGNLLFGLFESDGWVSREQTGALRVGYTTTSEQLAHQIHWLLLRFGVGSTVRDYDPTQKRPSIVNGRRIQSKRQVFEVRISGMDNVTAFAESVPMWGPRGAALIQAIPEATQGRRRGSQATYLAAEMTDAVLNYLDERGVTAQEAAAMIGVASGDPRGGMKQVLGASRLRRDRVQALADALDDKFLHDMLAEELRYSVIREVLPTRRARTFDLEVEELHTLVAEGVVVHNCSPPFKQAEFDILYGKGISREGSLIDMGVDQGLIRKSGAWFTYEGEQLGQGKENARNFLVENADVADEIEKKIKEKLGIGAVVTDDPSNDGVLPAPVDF

[12] = Luminescence Cell-Based Dose Response HTS to Identify Inhibitors of 5'UTR Stem-Loop Driven Prion Protein mRNA Translation in H4 Neuroglioblastoma Cells. [Related pubchem assays: 1827 (Project Summary), 1813 (Primary HTS)]; assay type: functional
[13] = target: T6, Hexokinase HKDC1 (Homo sapiens, UniProt Q2TB90); test: HKDC1 hexokinase inhibitors, dose response, biochemical, W721R variant (AID 504729); assay type: functional
T6 sequence (Q2TB90 whole entry): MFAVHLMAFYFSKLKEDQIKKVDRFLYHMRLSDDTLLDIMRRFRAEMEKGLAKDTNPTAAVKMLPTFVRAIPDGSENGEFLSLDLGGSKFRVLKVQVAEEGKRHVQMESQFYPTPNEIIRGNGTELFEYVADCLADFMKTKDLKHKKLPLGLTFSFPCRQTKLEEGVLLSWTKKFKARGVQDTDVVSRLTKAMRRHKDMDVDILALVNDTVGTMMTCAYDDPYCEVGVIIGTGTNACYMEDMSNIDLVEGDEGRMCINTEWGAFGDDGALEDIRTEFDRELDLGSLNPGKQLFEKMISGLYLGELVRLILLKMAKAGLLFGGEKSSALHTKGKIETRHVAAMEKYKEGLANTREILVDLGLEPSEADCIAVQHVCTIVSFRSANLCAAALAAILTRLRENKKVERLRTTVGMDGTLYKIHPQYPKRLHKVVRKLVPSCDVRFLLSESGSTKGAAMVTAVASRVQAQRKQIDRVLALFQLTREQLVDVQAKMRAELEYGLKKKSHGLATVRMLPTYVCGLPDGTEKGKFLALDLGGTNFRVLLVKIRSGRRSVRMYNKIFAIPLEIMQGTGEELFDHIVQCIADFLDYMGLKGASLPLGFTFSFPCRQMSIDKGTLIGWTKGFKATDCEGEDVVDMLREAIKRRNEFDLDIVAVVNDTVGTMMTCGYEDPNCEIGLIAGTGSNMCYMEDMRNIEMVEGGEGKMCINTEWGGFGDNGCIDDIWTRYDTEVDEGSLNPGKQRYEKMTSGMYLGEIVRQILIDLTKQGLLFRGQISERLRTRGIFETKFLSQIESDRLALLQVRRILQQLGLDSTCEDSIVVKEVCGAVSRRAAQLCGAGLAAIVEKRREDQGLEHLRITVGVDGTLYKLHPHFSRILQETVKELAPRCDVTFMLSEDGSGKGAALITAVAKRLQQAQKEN

[14] = inhibitors of SNCA 5'UTR-driven reporter translation, confirmation, H4 neuroglioma cells, luminescence (AID 1988); assay type: functional, cell-based
[15] = inhibitors of firefly luciferase expression or activity, dose response, H4 neuroglioma cells, luminescence (AID 1990); assay type: functional, cell-based
[16] = target: FAD-linked sulfhydryl oxidase ALR (Homo sapiens, UniProt P55789); test: inhibitors of human ALR sulfhydryl oxidase, dose response, biochemical, H2O2 detection, luminescence, cherry-pick (AID 493248)
[17] = target: Large T antigen (Simian virus 40, UniProt P03070); assay type: functional, Betapolyomavirus macacae;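 further: Confirmatory-stage PubChem screen for compounds that inhibit SV40 T antigen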
[18] = target: Dual specificity tyrosine-phosphorylation-regulated kinase 1A (Rattus norvegicus, UniProt Q63470); assay type: biochemical, Homo sapiens
[19] = target: T7, Ubiquitin-conjugating enzyme E2 N (Homo sapiens, UniProt P61088); assay type: functional;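 further: Dose-response confirmation in a TR-FRET assay detecting UBC13-driven polyubiquitin chain formation, inhibition measured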
T7 sequence (P61088 whole entry): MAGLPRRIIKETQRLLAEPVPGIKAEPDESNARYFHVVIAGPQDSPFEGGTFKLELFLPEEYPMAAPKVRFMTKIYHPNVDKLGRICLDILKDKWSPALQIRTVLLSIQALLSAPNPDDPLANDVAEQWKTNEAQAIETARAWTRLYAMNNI

[20] = target: T8, Microphthalmia-associated transcription factor (Homo sapiens, UniProt O75030); test: TRPM1 promoter luciferase signal decrease, dose response, MITF inhibitor project, cell-based, SK-MEL-5, cherry-picked, set 3 (AID 493073); assay type: functional
T8 sequence (O75030 whole entry): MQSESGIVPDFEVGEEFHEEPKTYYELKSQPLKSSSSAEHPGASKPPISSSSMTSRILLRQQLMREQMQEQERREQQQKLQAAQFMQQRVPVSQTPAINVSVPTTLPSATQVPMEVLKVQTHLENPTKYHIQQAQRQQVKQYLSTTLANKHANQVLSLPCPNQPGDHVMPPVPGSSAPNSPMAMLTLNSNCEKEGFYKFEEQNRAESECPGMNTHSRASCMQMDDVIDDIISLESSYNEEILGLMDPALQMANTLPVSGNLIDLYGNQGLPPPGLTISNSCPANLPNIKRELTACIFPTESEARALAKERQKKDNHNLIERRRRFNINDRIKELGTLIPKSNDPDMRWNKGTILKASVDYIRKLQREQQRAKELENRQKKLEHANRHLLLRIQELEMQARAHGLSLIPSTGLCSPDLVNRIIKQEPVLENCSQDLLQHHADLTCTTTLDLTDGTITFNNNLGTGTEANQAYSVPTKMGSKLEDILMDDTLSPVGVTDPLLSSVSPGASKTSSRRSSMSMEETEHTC

[21] = system: A-375; test: A375 melanoma cell viability reduction, dose response, counter-screen for MITF modulator project, cherry-pick samples, set 2 (AID 540335); assay type: functional, cell-based; details: Homo sapiens

Chain of FAD-linked sulfhydryl oxidase ALR (P55789 whole entry): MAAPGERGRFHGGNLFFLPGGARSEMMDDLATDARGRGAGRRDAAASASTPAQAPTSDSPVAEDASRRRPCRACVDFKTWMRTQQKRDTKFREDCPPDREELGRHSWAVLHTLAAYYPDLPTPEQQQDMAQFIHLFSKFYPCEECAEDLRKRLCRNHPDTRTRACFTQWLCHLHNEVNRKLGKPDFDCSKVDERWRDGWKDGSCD
Chain of X-box-binding protein 1 (P17861 whole entry): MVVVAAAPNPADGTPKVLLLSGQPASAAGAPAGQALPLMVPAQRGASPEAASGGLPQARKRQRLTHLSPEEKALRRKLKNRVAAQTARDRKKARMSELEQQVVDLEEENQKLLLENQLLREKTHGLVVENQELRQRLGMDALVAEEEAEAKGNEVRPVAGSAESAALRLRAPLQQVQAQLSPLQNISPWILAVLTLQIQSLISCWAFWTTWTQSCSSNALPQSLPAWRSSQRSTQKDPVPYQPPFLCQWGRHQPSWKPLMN
Chain of Large T antigen (P03070 whole entry): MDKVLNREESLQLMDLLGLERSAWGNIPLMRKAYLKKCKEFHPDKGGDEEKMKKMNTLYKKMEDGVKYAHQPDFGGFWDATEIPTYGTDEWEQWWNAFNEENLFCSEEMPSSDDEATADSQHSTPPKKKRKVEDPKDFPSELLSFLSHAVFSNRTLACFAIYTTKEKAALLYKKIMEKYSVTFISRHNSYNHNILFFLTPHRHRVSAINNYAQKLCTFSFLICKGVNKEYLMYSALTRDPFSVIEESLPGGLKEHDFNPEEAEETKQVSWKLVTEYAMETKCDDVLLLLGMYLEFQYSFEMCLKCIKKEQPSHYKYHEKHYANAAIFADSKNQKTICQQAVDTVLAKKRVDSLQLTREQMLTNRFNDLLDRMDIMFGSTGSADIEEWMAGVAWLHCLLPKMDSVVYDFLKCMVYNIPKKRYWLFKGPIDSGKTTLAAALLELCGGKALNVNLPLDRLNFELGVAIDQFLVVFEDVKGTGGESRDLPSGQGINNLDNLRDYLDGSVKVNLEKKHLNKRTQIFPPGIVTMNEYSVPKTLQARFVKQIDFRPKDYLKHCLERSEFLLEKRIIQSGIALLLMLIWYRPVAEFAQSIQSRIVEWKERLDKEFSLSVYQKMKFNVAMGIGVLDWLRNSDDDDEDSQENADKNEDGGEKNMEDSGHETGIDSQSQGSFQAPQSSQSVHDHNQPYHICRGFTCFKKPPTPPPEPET

## Br.N=c1n(CC(=O)c2ccc([N+](=O)[O-])cc2)c2ccccc2n1Cc1ccc(Cl)cc1
[1]
  EC50: > 300 µM (not active)
[2]
  AC50: 22.2 µM (active)
[3]
  EC50: 1.93 µM (active)
[4]
  Absolute IC50 (XBP1): 10 µM
[5]
  EC50: 5.38 µM (active)
[6]
  EC50: > 99 µM (inactive)
[7]
  EC50: 125 µM (active)
[8]
  EC50: 5.28 µM (active)

## CN1c2ccc(C=O)c3c(C=O)ccc(c23)N(C)C1(C)C
[1]
  EC50: 5.37 µM (inconclusive)
[9]
  AC50: 45.7 µM (active)
[10]
  AC50: 10.5 µM (active)
[11]
  EC50: 59.9 µM (inconclusive)
[12]
  EC50: 15.9 µM (active)
[13]
  IC50: 13.1 µM (active)
[14]
  EC50: > 120 µM (not active)
[15]
  EC50: 17.8 µM (active)
[16]
  AC50: 1.54 µM (active)
[17]
  IC50: 23 µM (active)
[7]
  EC50: 74 µM (inconclusive)
[18]
  AC50: 0.199 µM (active)

## Cc1cccc(/C=C2/Sc3ccc(C(=O)NCCN4CCCC4)cc3NC2=O)c1
[19]
  IC50: > 20 µM (inactive)
[20]
  AC50: 18.4 µM (active)
[21]
  AC50: 21.1 µM (active)
